Results reported in US20100248390A1, “COMPOSITIONS AND METHODS FOR IDENTIFYING LIGANDS OF ODORANT RECEPTORS” (DUKE UNIVERSITY, priority 2009, published 2010).
Where two headings read alike, the source gives them in different places.

Columns and labels:
[1] = target: T1, human odorant receptors (ORs) (Homo sapiens, UniProt Q9Y3N9); experiment: CRE-luciferase assay of odorant receptor activation (Dual-Glo, Hana3A cells, RTP1S), dose-response EC50; assay type: cell-based
T1 construct: OR open reading frames were amplified from genomic DNA; expressed in transfected cells; host or cells: Hana3A cells, co-transfected with RTP1S, CRE-luciferase and pRL-SV40
T1 sequence (Q9Y3N9 1-320): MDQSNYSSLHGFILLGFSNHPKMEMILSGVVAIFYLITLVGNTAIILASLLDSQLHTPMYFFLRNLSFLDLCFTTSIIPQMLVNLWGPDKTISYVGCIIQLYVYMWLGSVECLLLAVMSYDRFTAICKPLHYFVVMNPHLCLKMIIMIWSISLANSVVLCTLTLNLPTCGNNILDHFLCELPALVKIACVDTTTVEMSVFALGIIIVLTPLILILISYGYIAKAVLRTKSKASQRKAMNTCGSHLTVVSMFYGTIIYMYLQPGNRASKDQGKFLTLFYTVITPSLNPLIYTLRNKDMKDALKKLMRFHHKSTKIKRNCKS
Procedure, shortened: (§1)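 Hana3A cells were co-transfected with Rho-tagged OR, RTP1S, CRE-luciferase and pRL-SV40, then exposed to odorant in CD293 medium for 4 hrs at 37° C. Firefly luminescence was divided by Renilla and normalized as (LN−Lmin)/(Lmax−Lmin) per plate set. Each dose was tested at least three times, and EC50 came from sigmoidal fits.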

[2] = target: T2, human odorant receptors (ORs) (Homo sapiens, UniProt Q9P1Q5); experiment: as above; assay type: cell-based
T2 construct: OR open reading frames were amplified from genomic DNA; expressed in transfected cells; host or cells: Hana3A cells, co-transfected with RTP1S, CRE-luciferase and pRL-SV40
T2 sequence (Q9P1Q5 1-309): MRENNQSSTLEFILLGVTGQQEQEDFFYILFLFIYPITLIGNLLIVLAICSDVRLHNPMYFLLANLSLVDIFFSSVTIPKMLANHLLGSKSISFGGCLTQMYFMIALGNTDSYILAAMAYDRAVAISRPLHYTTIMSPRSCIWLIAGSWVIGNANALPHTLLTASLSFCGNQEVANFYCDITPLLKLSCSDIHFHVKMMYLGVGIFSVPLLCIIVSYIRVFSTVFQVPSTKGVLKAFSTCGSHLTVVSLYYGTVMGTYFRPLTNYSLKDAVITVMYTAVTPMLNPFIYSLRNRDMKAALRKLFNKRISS
Procedure, shortened: as §1

[3] = receptor OR2W1, 0 = no response
[4] = receptor OR1A1, 0 = no response
[5] = receptor OR2W1, 0 = no response, read-out: log EC50, OR2W1 (converted)
[6] = receptor OR1A1, 0 = no response, read-out: log EC50, OR1A1 (converted)
[7] = receptor OR2W1, read-out: log EC50 (Table 4 value), OR2W1 (converted)
[8] = receptor OR1A1, read-out: log EC50 (Table 4 value), OR1A1 (converted)
[9] = receptor OR2W1, read-out: log EC50 of odorant at OR2W1 (0 = no response) (converted)
[10] = receptor OR1A1, read-out: log EC50 of odorant at OR1A1 (0 = no response) (converted)

With `C=C(C)C1CC=C(C)C(=O)C1` (single isomer, unassigned; (-)) [(−)-Carvone] the “log EC50, OR2W1” value [1, 3] was −4.657 and the “log EC50, OR1A1” value [2, 4] was −5.765.
`CC(C)=CCCC(C)CCO` (single isomer, unassigned; (-)) [(−)-b-C ? inedol] gave an EC50 [1, 5] of 7.8 µM and an EC50 [2, 6] of 91.4 µM.
`CCCCCCCCCCO` [1-Decanol] was tested, and the EC50 [1] was 43.2 µM and the EC50 [2] was 828 µM.
With `CCCCCCCO` [1-Heptanol] the EC50 [1, 5] was 14.8 µM and the EC50 [2, 6] was 971 µM.
With `O=C1CCOc2ccccc21` [4-Chromanone] the EC50 [1, 7] was 91 µM and the EC50 [2, 8] was 462 µM.
With `C=C(C)[C@H]1CC=C(C)C(=O)C1` [(+)-Carvone] the “log EC50, OR2W1” value [1, 3] was −4.646 and the “log EC50, OR1A1” value [2, 4] was −5.035.
With `C=C(C)[C@@H]1CC[C@@H](C)C(=O)C1` [(+)-Dihydrocarvone] the “log EC50, OR2W1” value [1, 3] was −4.755 and the “log EC50, OR1A1” value [2, 4] was −4.992.
For `CC(=O)c1ccccc1` [Acetophenone], the EC50 [1, 7] was 42.5 µM.
In the case of `C=CCOC(=O)Cc1ccccc1` [Allyl phenylacetate], the EC50 [1] is reported as 15.4 µM and the EC50 [2] is reported as 7.6 µM.
With `CC(=O)OCc1ccccc1` [Benzyl acetate] the EC50 [1, 7] was 16.4 µM and the EC50 [2, 8] was 406 µM.
In the case of `O=c1ccc2ccccc2o1` [Coumarin], the EC50 [1, 7] is reported as 86.1 µM.
In the case of `CCCCCC1=C(C)CCC1=O` [Dihydroiasmone], the “log EC50 (Table 4 value), OR2W1” value ([1]; receptor OR2W1) is reported as −4.246 and the “log EC50 (Table 4 value), OR1A1” value ([2]; receptor OR1A1) is reported as −7.242.
`CC(C)=CCC/C(C)=C/CO` [Getaniol] was tested, and the EC50 [1, 7] was 18.4 µM and the EC50 [2, 8] was 341 µM.
`CCCCCCCCCS` [Nonanethiol] showed an EC50 [1, 9] of 86.1 µM and an EC50 [2, 10] of 571 µM.
Compound `CCCCCCCCC(=O)O` [Nonanoic acid] has an EC50 [1, 9] of 189 µM.
Work on `CCCCCCCCS` [Octanethiol] yielded an EC50 [1, 9] of 92.7 µM and an EC50 [2, 10] of 594 µM.
For `CCCCCCCC(=O)O` [Octanoic Acid], the EC50 [1, 9] was 14.2 µM.
Work on `CC(=O)Oc1ccccc1` [Phenyl acetate] yielded an EC50 [1, 9] of 84.9 µM.
